According to patent US5580852A, “Derivatives of tachyplesin having inhibitory activity towards plant pathogenic fungi” (Pioneer Hi-Bred International, Inc., priority 1993, dated 1996):

Columns and labels:
Format in all cases: cell-based
Aspergillus flavus = assay: Antifungal testing, MIC and MCIC; details: comparison table
Fusarium moniliforme = assay: Antifungal testing, MIC and MCIC; details: comparison table
E. coli = details: bacterial host; statement in words

Substance | MIC AFL (Aspergillus flavus; known antimicrobial compounds) [µg/mL] | MIC AFL (Aspergillus flavus; value in parentheses) [µM] | MIC FMO (Fusarium moniliforme; known antimicrobial compounds) [µg/mL] | MIC FMO (Fusarium moniliforme; value in parentheses) [µM] | toxicity to E. coli (E. coli)
CMIII | 60 | 15 | 18.2 | 4.6 | 
hordothionin | 15 | 3 | 45 | 9 | 
KWCFRVCYRGICYRRCR [tachyplesin, natural tachyplesin, small peptide originally isolated from the hemocytes of the horseshoe crab, Tachypleus tridentatus] | 6.25 | 2.8 | 6.25 | 2.8 | significant toxicity
